Here are results for two compounds from US20260257992A1, “AGONISTS OF SMALL HETERODIMER PARTNER FOR CANCER THERAPY” (THE BOARD OF TRUSTEES OF THE UNIVERSITY OF ILLINOIS, priority 2023, published 2026).

The subject of data set [1] is dendritic cells from MMTV-PyMT tumors. Nature of the data set: DCs (CD11B+; CD11C+) isolated from MMTV-PyMT tumors, treated ex vivo. The class given is cell-based, mouse. An excerpt:
FIG. 3A-3F. DSHN, a tool small molecule agonist of NR0B2 reduces macrophage/dendritic cell induced Treg expansion and tumor growth in murine models. […] (B) Dendritic cells (left-CD11B^+; CD11C^+) and CD4^+ T cells (right) were isolated from MMTV-PyMT tumors by FACS, and treated with vehicle or DSHN for 3d. The resulting frequency of Treg (CD4^+; CD25^+; FoxP3^+) was quantified by flow cytometry (right graph), (N=3-5/group, t test). […] The percentage of divided CD8+ T cells in the second round was quantified. (D) DSHN increases efficacy of αPDL1 therapy on orthotopic E0771 tumors. An optimal number of E0771 cells were grafted into FoxP3-EGFP mice and allowed to grow until tumors reached 100 mm^3. Mice were euthanized on day 19 (waterfall plot, Fisher's exact test). (E) DSHN increases efficacy of αPDL1 therapy on orthotopic 4T1 tumors. 4T1 cells were orthotopically grafted into mice and allowed to establish for 5d prior to treatment start. Mice were euthanized on day 16 (waterfall plot, Fisher's exact test). (F) DSHN reduces metastatic outgrowth of 4T1 tumors and enhances efficacy of αPDL1 compared to placebo (p) (2-way ANOVA followed by Šidák's multiple comparison test for day 16). 4T1 cells were grafted intravenously, and lung metastatic lesions allowed to establish for 3d before treatment commenced. At the end of the study, lungs were removed and imaged ex vivo, quantified data indicated (N=10, 1-way ANOVA followed by Newman-Keuls multiple comparison test). Representative luciferase images shown to the right. * or different letters denote P<0.05 using indicated statistical test.
Since myeloid cells are thought to have been uniquely polarized within the tumor microenvironment, and in order to determine whether DSHN could overcome this, we isolated DCs (CD11B^+; CD11C^+) from MMTV-PyMT tumors. […] Cd4^+ T cells expanded in co-culture with DSHN pre-treated BMDMs had decreased suppressive capacity in terms of secondary CD8+ expansion (FIG. 3C).

The test system of data set [2] is Treg abundance. The data set is described as follows: In vivo model of immune tolerance to a chronic antigen.
Data set [3] has as its system E0771 tumors. Nature of the data set: Survival after orthotopic graft of a suboptimal number of E0771-luc cells. The class given is in vivo, mouse. As to conditions: treatment ceased after 18 days. An excerpt:
We then evaluated DSHN in a model where a low, suboptimal number of E0771-luc cells were grafted orthotopically. Since NR0B2 was also implicated in regulating myeloid cell expression of PD-L1, we investigated the effect of acute DSHN combined with anti-PD-L1 (αPDL1) treatment on subsequent outgrowth of E0771 tumors. Treatment was ceased after 18 days and mice were monitored through time. […] We next assessed the effects of DSHN combined with αPDL1 on growth of primary tumors (optimal number of cells used to establish graft). […] We then evaluated the ability of DSHN to impact established metastatic disease—a stage that is refractory to standard of care therapy and immune checkpoint blockade. […] In summary, the tool compound DSHN provides proof of principle that the NR0B2-myeloid cell-Treg axis can be targeted for the treatment of breast cancer.

Data set [4] deals with ABCA1 mRNA. The data set is described as follows: ABCA1 mRNA reduction in Raw cells. It is filed as cell-based. Details: key: ✓: using strict cutoffs with respect to DSHN for passing each metric; X: using strict cutoffs with respect to DSHN for passing each metric. Particulars: pass/fail with respect to DSHN. The text has this: (§1) Development of a more efficacious NR0B2 agonist. While DSHN was a useful proof-of-concept small molecule, macrophages required high doses and chronic exposure for robust influences on subsequent Tregs expansion. […] Therefore, we synthesized several derivatives of DSHN and screened them using a reporter assay which makes use of the endogenous cholesterol homeostatic feedback loop, where FXR activation upregulates NR0B2, which then inhibits LXR and its normal induction of ABCA1. We then followed this screen with several others with stringent cutoffs: effect on endogenous ABCA1 and IL1β expression, reduction of Treg expansion in either macrophage or DC co-cultures, and low cellular toxicity (FIG. 5A, Table 4).

Data set [5] concerns IL1b mRNA. Nature of the data set: IL1b mRNA reduction in Raw cells. The class given is cell-based. Details: key: ✓: using strict cutoffs with respect to DSHN for passing each metric; X: using strict cutoffs with respect to DSHN for passing each metric. Particulars: pass/fail with respect to DSHN.
Text: as §1

A short description of data set [6]: Low cellular toxicity screen. The class given is cell-based. Further details: key: ✓: using strict cutoffs with respect to DSHN for passing each metric; X: using strict cutoffs with respect to DSHN for passing each metric. As to conditions: pass/fail with respect to DSHN.
Text: as §1
Resazurin cell viability assay. 20,000 cells were seeded into 96 well f-bottom, black plates (Corning Costar) and cell viability was measured using 100 μL resazurin per well at 0.3 mg/mL (Acros Organics). The fluorescence signal was quantified by plate reader (560 nm excitation/590 nm emission) at 2-3 h.

Data set [7] has as its target T1, NR0B2 (Mus musculus, UniProt Q62227).
T1 construct: Dose response assay in BMDMs pre-treated with increasing doses of DSHN-OMe and then treated with 1 μM GW3965, using ABCA1 mRNA as an endpoint; endogenous in cells; host or cells: mouse bone marrow derived macrophages (BMDMs)
T1 sequence (Q62227 1-260): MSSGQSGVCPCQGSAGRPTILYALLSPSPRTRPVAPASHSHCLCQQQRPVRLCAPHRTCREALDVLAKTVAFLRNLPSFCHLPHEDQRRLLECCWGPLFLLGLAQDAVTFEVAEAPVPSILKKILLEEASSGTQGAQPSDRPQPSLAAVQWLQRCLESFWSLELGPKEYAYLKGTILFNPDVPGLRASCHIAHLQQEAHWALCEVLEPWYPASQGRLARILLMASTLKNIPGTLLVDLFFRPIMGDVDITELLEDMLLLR
Nature of the data set: Attenuation of GW3965 (LXR agonist) induction of ABCA1 mRNA in BMDMs. It is filed as cell-based. The protocol: FIG. 5A-5D. DSHN-OMe, an NR0B2 small molecule ligand with increased potency in terms of reducing Treg expansion and strong efficacy against metastatic mammary tumors. (A) DSHN-OMe effectively reduces induction of LXR target gene ABCA1 by GW3965. Different letters denote statistical difference between GW3965 treated groups (N=3-4/group, 1-way ANOVA followed by Šidák test). (B) Dose response assay in BMDMs pre-treated with increasing doses of DSHN-OMe and then treated with 1 μM GW3965, using ABCA1 mRNA as an endpoint. Data was normalized to 0.01 μM DSHN-OMe (0%) and GW3965 alone (100%). DSHN (100 μM) is indicated for comparison (bar at end of graph). […] (C) Thermal shift assay using a recombinant protein presence of a fluorescent dye. Plot of raw data is above plot of first derivative. (D) DSHN-OMe is ineffective at regulating ABCA1 when NR0B2 is knocked down with siRNA in BMDMs.
The TM for apo/unliganded was 46.74±0.22, DSHN-OMe at 46.92±0.17 and DSHN at 46.34±0.51° C. (FIG. 5C).

pIC50: −log10 of the molar value.

For the compound `CCN(CC)S(=O)(=O)c1cccc2cc(C(=O)O)c(O)cc12` [DSHN, reference compound], the “Treg expansion, tumor DCs co-cultured with CD4+ T cells” value in data set [1] was “decreased expansion of Treg cells”. Also, the “PD-L1 positivity of tumor DCs” value in data set [1] (cultured with DSHN followed by LPS and IFNγ) is reported as “decreased PD-L1 positivity”. Further, in data set [1] (versus vehicle treated DCs from the same tumor), the “Viability of tumor DCs” value was “increased viability”. Moreover, the “Treg abundance in vivo” value in data set [2] is given as “reduce Treg abundance”. For the same compound, the “Survival of one DSHN-only treated mouse, no palpable tumor” value in data set [3] (post graft) is reported as “more than 400 days”. The “Survival time, combined with αPDL1” value in data set [3] (versus placebo) is on record as “significantly increased survival time”.

On to `CCN(CC)S(=O)(=O)c1cccc2cc(C(=O)OC)c(O)cc12` [DSHN-OMe, Methyl 5-(N,N-diethylsulfamoyl)-3-hydroxy-2-naphthoate], for which the “ABCA1 mRNA reduction (Raw Cells)” value in data set [4] is on record as “✓”. Further, the “IL1b mRNA reduction (Raw Cells)” value in data set [5] is recorded as “✓”. The “Low Toxicity” value in data set [6] is on record as “✓”. For the same compound, in data set [7] (BMDMs pre-treated with compound, then 1 μM GW3965, 4 parameter variable slope fit, read-out: IC50, ABCA1 mRNA as endpoint), the negative-log IC50 (pIC50) – broadly, −log10 of the IC50, conventionally taken in molar units – was 5.42. In data set [7] (BMDMs, GW3965), the “LXR induction of ABCA1” value is listed as “reducing LXR induction of ABCA1 in a dose-related manner”. Also, the “Attenuation of ABCA1 induction with NR0B2 knockdown” value in data set [7] (BMDMs, NR0B2 siRNA, GW3965) is given as “lost when NR0B2 was knocked down in BMDMs”.
